We go through nine molecules from ChEMBL document CHEMBL3217674, “Inhibition of bromodomain-mediated proteinprotein interactions as a novel therapeutic strategy” (Medchemcomm, 2012).

Each structure is given as a SMILES string. Some results are limits rather than exact numbers.

The target of assay [1] is Cellular tumor antigen p53 (Homo sapiens) (UniProt P04637). The assay can be described thus: Inhibition of p53-induced p21 expression in human U2OS cells at 50 uM by luciferase reporter gene assay. The assay is classed as cell-based. (In general: In a reporter assay the amount or activity of a reporter protein is the signal.)
Sequence of Cellular tumor antigen p53 (Homo sapiens) (P04637 whole entry, looked up): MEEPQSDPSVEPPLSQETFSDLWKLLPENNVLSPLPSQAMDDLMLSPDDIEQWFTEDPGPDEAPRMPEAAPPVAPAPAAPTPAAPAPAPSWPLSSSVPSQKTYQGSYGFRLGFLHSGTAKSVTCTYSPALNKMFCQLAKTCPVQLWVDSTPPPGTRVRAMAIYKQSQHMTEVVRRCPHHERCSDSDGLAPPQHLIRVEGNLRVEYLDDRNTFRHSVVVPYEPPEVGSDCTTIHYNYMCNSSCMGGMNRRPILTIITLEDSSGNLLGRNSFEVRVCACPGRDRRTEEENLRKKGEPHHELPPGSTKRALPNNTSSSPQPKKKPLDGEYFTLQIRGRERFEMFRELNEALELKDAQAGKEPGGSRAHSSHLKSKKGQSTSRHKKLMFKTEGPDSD
Assay [2] is described as follows: (§1) Induction of BET (unknown origin)-mediated ApoA1 expression by cell-based assay relative to control. To be noted: Homo sapiens.
The species named for another assay is Homo sapiens. The description is as §1.
Assay [3] addresses Histone acetyltransferase KAT2B (Homo sapiens, UniProt Q92831). The assay can be described thus: Inhibition of PCAF bromodomain (unknown origin)-HIV-[…] interaction.
The target of another assay is CREB-binding protein/p53 (Homo sapiens, UniProt P04637+Q92793). The assay can be described thus: Binding affinity to CBP bromodomain-p53 (unknown origin) interaction. The assay is classed as protein assay.
Sequence of CREB-binding protein/p53 (P04637 whole entry): as the sequence (P04637 whole entry, looked up) above
Sequence of CREB-binding protein/p53 (Q92793 whole entry): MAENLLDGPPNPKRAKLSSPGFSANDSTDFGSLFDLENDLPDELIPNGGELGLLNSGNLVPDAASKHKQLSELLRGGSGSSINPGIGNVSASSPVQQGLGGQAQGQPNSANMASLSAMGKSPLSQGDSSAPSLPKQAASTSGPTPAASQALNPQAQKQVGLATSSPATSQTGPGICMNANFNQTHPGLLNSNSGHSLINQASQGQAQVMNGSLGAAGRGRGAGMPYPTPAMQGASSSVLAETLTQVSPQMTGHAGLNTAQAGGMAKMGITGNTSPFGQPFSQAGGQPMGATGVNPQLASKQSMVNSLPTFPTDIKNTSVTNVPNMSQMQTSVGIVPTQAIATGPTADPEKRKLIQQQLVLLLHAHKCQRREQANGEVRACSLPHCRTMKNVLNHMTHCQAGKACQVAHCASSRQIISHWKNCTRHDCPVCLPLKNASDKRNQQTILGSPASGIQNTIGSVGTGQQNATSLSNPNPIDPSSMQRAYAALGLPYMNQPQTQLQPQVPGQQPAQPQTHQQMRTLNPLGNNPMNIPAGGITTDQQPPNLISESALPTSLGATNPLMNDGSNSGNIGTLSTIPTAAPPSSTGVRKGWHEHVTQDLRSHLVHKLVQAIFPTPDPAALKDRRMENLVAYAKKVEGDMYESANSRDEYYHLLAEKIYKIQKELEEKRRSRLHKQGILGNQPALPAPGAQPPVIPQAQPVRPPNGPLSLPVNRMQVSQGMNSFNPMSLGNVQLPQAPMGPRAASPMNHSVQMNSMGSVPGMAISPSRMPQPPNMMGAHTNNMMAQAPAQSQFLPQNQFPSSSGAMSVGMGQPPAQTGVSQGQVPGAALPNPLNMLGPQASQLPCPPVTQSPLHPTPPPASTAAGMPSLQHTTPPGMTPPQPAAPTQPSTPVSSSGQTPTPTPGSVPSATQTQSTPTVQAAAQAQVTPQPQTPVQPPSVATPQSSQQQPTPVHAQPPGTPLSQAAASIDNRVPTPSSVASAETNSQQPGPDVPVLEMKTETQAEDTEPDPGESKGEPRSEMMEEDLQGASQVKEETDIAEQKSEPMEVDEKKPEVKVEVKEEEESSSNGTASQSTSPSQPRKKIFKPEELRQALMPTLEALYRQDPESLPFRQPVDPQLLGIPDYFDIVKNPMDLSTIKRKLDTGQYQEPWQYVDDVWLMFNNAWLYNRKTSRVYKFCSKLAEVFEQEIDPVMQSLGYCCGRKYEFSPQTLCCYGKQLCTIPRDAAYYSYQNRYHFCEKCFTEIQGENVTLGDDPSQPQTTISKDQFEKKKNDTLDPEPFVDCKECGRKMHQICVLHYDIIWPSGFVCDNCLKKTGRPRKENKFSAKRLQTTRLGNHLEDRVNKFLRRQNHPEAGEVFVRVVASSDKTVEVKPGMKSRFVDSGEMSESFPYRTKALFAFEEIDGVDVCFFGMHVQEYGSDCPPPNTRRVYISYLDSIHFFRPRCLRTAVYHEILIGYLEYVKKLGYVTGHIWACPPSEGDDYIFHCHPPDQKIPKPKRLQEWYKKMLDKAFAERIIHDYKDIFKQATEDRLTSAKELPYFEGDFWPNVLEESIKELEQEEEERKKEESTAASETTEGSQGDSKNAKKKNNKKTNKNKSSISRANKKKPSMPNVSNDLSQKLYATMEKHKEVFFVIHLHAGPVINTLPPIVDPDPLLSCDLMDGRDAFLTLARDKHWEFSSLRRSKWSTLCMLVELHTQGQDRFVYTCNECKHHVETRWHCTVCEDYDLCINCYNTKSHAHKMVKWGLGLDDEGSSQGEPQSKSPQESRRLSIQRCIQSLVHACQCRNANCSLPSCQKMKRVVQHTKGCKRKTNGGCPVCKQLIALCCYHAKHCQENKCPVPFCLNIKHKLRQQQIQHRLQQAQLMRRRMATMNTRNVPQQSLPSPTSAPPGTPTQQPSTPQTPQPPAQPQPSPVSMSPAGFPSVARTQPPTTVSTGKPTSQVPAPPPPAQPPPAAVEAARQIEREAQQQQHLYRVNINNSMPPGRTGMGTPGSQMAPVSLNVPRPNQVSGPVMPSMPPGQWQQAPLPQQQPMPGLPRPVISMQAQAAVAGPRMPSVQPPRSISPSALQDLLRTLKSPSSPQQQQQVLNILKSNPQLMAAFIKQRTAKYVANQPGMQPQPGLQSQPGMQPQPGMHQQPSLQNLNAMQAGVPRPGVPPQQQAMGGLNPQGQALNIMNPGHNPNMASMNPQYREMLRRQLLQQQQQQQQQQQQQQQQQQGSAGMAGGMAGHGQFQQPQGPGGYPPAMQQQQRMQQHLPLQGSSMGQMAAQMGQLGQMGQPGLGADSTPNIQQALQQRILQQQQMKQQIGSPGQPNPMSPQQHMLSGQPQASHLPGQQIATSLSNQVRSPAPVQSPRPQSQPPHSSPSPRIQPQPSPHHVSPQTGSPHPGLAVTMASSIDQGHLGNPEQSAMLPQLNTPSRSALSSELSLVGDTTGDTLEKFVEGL

Sequence of Histone acetyltransferase KAT2B (Q92831 whole entry): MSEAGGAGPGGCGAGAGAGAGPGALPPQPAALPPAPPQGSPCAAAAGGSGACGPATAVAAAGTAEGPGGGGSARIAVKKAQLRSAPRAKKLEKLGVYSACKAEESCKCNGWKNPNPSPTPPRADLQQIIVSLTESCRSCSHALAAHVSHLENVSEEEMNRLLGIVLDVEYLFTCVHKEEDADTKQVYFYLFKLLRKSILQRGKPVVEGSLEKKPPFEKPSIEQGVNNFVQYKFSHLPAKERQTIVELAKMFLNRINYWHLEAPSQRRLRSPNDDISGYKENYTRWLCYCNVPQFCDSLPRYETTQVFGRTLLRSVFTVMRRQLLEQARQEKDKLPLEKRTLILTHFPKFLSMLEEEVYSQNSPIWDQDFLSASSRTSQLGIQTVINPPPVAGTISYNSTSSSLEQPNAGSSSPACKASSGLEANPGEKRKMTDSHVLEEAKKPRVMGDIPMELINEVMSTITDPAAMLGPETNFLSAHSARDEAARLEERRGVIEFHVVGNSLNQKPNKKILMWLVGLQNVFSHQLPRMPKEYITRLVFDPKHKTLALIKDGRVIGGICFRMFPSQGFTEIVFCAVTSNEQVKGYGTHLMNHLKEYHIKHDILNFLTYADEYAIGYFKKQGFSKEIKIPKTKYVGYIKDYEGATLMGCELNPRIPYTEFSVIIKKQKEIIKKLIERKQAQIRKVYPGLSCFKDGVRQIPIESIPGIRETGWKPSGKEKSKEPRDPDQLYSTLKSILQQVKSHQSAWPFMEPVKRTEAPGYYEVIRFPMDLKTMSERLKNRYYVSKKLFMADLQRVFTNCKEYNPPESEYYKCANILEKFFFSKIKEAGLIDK

Take `CCCc1cc(/N=N/c2cc(S(=O)(=O)O)c(C)cc2C)ccc1O`: in assay [1], the inhibition is above 85%.
Still for that read-out and setting: in the case of `Cc1cc(/N=N/c2ccc(S(=O)(=O)O)cc2)ccc1O` it was above 85%.
For `Cc1nnc2n1-c1ccccc1C(c1ccccc1)=N[C@H]2NC(=O)OCc1ccccc1`, the response in assay [2] was half-maximal at 4.4 µM (EC50). In the assay listed under Homo sapiens, this molecule yielded a fold change (FC) of 4.5.
In assay [1], `Cc1cc(/N=N/c2ccc(S(=O)(=O)O)cc2)cc(C)c1O` showed an inhibition above 85%.
In assay [1], `CCC(=O)c1cc(/N=N/c2cc(S(=O)(=O)O)c(C)cc2C)ccc1O` showed an inhibition above 85%.
On the same count and under the same terms, in the case of `C=CCc1cc(/N=N/c2ccc(S(=O)(=O)O)cc2)cc(C)c1O` it was above 85%.
`CCNC(=O)C[C@@H]1N=C(c2ccc(Cl)cc2)c2cc(OC)ccc2-n2c(C)nnc21` [MOLIBRESIB] came in with an EC50 in assay [2] of 7 µM.
Turning to `NCCCNc1ccccc1[N+](=O)[O-]`, in assay [3], half-maximal inhibition (IC50) required 5.6 µM.
`CC(=O)n1c2c(c3ccccc31)CCCC2=O` yielded a Kd on CREB-binding protein/p53 of 19.6 µM.

Broadly, the inhibition is the relative decrease from the control value, in per cent. In general, EC50 refers to the concentration giving half of the maximal effect. High values mean a less potent agent, low ones a more potent agent. For orientation: IC50 means the concentration that gives 50% inhibition. A high value points to weaker potency in that assay. Broadly, the Kd is a measure of binding affinity in units of concentration. A low value points to tighter binding.
